According to ChEMBL document CHEMBL1201862, “PubChem BioAssay data set” (2004):
Active and inactive are the calls of the source.

Assays:
HEK293 = assay: EBV LMP1 TES2 canonical NF-kB signalling blockers – cell-based, HEK293, luciferase, cherry-pick, dose response (AID 588343); format: functional; details: Homo sapiens
[1] = luciferase reporter signal suppression in cells – H4 neuroglioma cells, luminescence, dose response (AID 1990); format: functional, cell-based
[2] = Luminescence Cell-Based Dose Response HTS to Identify Inhibitors of 5'UTR Stem-Loop Driven Prion Protein mRNA Translation in H4 Neuroglioblastoma Cells. [Related pubchem assays: 1827 (Project Summary), 1813 (Primary HTS)]; format: functional
[3] = alpha-synuclein stem-loop luciferase translation blockers – H4 neuroglioma cells, luminescence, confirmation (AID 1988); format: functional, cell-based
[4] = molecular target: T1, Endoribonuclease toxin MazF (Escherichia coli K-12, UniProt P0AE70); assay: activation of MazEF endoribonuclease cleavage – biochemical, fluorescence, single-stranded RNA substrate, uHTS hits, dose response (AID 588481); format: functional
T1 sequence (P0AE70 whole entry): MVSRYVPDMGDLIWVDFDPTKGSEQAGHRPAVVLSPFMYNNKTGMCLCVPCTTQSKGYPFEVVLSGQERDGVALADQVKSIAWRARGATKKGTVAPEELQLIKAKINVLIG

[5] = molecular target: T1, Endoribonuclease toxin MazF; assay: substrate-only fluorescence increase artefacts – biochemical, single-stranded RNase substrate, counter-screen for MazEF activator project, dose response (AID 588502); format: functional
[6] = molecular target: Glucose-6-phosphate 1-dehydrogenase (Homo sapiens, UniProt P11413); assay: inhibition of Homo sapiens G6PD, dose series – biochemical, fluorescence, selectivity assay for P. falciparum G6PD inhibitor project, dose response (AID 504792); format: functional
[7] = molecular target: Glyceraldehyde-3-phosphate dehydrogenase (Homo sapiens, UniProt P04406)
[8] = molecular target: T2, Alkaline phosphatase, tissue-nonspecific isozyme (Homo sapiens, UniProt P05186); assay: potency against alkaline phosphatase TNAP – biochemical, luminescent, dose response, SAR follow-up (AID 1056)
T2 sequence (P05186 whole entry): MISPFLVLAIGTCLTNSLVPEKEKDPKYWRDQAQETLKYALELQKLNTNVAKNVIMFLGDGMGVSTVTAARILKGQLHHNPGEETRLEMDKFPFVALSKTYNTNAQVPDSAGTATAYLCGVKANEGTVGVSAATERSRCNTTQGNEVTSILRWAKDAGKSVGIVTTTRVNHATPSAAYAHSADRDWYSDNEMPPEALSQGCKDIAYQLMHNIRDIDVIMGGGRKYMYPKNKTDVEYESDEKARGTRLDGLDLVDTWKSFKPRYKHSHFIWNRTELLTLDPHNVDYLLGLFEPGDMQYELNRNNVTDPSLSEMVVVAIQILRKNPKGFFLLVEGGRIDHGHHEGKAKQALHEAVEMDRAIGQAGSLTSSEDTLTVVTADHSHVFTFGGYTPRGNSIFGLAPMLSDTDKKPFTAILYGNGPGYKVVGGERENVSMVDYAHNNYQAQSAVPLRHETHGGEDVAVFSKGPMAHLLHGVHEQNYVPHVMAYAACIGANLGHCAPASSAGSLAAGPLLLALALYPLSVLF

[9] = A Cell Based Secondary Assay To Explore Cytotoxicity of Compounds that Sensitize Mycobacterium Tuberculosis to Beta-Lactam Antibiotics.; format: functional
[10] = Trypanosoma cruzi growth suppression in host cells – NIH3T3 host cells, beta-gal luminescence, confirmation (AID 2044); format: functional, cell-based;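 also: intracellular parasites grown in NIH/3T3 mouse fibroblasts as host cells; luminescent beta-galactosidase reporter signal from transgenic T. cruzi replicating inside host cells; inhibitors lower the luminescence signal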
[11] = NIH3T3 cell viability loss – ATP luminescence, mouse fibroblasts, counter-screen, dose response (AID 2010); format: functional, cell-based;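 also: cells exposed to compound for about 90 hours before reading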
INS1 = assay: INS-1E survival protection against cytokine death – cell-based, luminescence, retest, dose response (AID 449756); format: functional; details: Rattus norvegicus;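 also: cell death triggered by IL-1 beta plus TNF-alpha plus IFN-gamma mixture; protective hits raise ATP signal compared with cytokine alone wells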
[12] = molecular target: T3, DNA repair protein RAD52 homolog (Homo sapiens, UniProt P43351); format: functional, biochemical
T3 sequence (P43351 whole entry): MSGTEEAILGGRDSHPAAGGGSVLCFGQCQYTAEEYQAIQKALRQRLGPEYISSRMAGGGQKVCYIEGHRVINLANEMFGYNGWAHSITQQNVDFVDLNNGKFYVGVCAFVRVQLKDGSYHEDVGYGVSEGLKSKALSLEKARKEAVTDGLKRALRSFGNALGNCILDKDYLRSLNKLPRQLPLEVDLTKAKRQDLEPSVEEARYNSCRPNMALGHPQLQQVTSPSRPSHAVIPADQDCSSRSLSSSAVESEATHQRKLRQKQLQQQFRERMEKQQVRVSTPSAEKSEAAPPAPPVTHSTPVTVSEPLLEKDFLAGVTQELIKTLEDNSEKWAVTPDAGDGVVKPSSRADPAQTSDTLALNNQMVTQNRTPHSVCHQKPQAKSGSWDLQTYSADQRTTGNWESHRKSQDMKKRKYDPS

[13] = molecular target: DNA dC->dU-editing enzyme APOBEC-3A (Homo sapiens, UniProt P31941); assay: Dose Response confirmation of small molecule APOBEC3A DNA Deaminase Inhibitors via a fluorescence-based single-stranded DNA deaminase assay. [Related pubchem assays (depositor defined):AID493011, AID493024]; format: functional
[14] = molecular target: Eukaryotic translation initiation factor 4E (Mus musculus, UniProt P63073); assay: blockers of eIF4G binding by eIF4E – biochemical, TR-FRET, dose response (AID 855); format: functional;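 also: potency for disrupting eIF4E binding to eIF4GI seen as loss of FRET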
[15] = molecular target: DNA dC->dU-editing enzyme APOBEC-3G (Homo sapiens, UniProt Q9HC16); format: functional;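 also: Dose-response counterscreen measuring inhibition of APOBEC3G DNA deaminase activity, run while confirming APOBEC3A inhibitors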
[16] = molecular target: T4, Heat shock factor protein 1 (Mus musculus, UniProt P38532); assay: decrease of HSF1-responsive luciferase luminescence – cell-based, NIH3T3, dose retest, confirmation (AID 2382); format: functional;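 also: NIH3T3 fibroblasts with HSF1-driven luciferase reporter stressed by proteasome inhibitor MG132; luminescence from HSF1-driven luciferase expression after 8 hours of MG132 stress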
T4 sequence (P38532 whole entry): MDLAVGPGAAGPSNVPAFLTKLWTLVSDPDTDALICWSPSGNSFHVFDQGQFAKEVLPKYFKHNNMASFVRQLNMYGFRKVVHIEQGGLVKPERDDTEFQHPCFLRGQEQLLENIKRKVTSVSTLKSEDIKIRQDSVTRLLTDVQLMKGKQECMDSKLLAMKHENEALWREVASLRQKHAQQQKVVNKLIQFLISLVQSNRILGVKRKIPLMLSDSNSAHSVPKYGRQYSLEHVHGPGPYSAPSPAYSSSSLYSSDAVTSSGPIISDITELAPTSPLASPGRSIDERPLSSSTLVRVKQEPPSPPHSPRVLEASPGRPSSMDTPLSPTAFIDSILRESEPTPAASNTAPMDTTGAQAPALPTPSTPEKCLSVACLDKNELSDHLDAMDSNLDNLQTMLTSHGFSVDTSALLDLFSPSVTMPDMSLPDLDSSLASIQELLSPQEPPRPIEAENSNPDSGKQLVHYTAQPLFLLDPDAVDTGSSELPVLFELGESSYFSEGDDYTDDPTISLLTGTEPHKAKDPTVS

[17] = molecular target: T5, Rac GTPase-activating protein 1 (Homo sapiens, UniProt Q9H0H5); assay: blockers of MgcRacGAP-driven Rac1 GTP hydrolysis – biochemical, ADP Hunter fluorescence, primary and confirmatory, confirmation (AID 624330); format: functional
T5 sequence (Q9H0H5 whole entry): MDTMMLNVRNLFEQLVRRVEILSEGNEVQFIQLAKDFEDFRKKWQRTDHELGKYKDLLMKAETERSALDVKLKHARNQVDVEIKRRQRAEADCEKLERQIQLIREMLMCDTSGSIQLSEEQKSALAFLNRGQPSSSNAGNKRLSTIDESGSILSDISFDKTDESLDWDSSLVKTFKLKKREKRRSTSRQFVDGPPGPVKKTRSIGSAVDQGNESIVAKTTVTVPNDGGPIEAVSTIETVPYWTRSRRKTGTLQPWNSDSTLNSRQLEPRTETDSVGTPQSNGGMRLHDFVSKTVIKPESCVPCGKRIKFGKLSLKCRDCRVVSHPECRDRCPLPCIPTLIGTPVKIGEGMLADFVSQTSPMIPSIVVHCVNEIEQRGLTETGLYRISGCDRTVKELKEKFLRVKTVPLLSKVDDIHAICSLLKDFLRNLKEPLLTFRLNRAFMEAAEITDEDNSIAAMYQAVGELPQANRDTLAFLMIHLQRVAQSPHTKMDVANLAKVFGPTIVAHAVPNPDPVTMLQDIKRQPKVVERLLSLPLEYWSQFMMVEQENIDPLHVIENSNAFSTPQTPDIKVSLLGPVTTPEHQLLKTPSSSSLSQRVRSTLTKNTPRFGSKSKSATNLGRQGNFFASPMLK

[18] = molecular target: T6, Mannose-6-phosphate isomerase (Homo sapiens, UniProt P34949); assay: MPI inhibition at elevated mannose 6-phosphate – biochemical, fluorescence intensity, high mannose 6-phosphate, primary screen (AID 1220)
T6 sequence (P34949 whole entry): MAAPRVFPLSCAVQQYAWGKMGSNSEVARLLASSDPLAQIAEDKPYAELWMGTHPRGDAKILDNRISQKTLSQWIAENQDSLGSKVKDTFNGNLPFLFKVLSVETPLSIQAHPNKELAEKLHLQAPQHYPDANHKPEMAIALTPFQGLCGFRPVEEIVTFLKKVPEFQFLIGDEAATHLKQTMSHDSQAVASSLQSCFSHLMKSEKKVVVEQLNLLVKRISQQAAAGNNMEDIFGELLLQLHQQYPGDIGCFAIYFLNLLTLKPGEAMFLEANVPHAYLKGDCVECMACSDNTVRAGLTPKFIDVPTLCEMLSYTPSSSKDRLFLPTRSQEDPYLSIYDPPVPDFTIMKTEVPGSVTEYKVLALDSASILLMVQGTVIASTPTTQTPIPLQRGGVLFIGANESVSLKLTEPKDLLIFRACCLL

Genome polyprotein = Genome polyprotein (dengue virus type 2, UniProt P29990); assay: flavivirus cap methylation enzyme inhibition – biochemical, confirmation dose response, primary screen (AID 588689); format: functional
Chain of Genome polyprotein (P29990 2492-3391 limits assumed): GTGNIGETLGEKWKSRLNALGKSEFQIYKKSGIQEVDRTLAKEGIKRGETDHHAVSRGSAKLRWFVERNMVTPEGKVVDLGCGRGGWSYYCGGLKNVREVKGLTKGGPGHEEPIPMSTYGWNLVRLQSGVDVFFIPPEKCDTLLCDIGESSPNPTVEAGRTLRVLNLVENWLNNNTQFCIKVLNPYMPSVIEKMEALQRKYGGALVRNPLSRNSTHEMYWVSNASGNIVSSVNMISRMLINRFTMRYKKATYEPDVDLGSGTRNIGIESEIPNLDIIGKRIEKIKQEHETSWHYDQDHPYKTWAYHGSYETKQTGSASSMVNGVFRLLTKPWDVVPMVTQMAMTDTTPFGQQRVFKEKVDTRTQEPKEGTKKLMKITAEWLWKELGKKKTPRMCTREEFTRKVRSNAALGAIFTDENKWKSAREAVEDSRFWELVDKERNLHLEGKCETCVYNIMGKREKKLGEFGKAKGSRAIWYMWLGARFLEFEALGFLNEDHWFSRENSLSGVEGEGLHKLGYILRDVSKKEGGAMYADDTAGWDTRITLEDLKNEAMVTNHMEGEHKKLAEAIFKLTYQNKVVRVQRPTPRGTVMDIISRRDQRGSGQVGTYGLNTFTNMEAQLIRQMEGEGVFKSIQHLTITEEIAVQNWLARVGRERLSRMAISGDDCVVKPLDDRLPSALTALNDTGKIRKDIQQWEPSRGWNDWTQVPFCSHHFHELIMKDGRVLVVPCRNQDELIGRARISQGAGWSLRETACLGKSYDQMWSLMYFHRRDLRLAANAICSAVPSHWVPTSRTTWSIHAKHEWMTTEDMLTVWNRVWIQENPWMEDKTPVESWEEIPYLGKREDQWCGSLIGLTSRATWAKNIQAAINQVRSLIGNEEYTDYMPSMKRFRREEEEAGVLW

Chain of Glyceraldehyde-3-phosphate dehydrogenase (P04406 whole entry): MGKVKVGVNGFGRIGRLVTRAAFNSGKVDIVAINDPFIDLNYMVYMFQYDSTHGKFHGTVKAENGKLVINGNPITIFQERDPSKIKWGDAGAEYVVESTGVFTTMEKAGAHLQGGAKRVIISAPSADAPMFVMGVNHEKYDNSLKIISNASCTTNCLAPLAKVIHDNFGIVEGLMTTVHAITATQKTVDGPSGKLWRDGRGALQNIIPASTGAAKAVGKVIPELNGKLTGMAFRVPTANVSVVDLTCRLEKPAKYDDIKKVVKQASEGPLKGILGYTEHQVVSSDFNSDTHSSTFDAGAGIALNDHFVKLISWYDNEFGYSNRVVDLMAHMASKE
Chain of Glucose-6-phosphate 1-dehydrogenase (P11413 whole entry): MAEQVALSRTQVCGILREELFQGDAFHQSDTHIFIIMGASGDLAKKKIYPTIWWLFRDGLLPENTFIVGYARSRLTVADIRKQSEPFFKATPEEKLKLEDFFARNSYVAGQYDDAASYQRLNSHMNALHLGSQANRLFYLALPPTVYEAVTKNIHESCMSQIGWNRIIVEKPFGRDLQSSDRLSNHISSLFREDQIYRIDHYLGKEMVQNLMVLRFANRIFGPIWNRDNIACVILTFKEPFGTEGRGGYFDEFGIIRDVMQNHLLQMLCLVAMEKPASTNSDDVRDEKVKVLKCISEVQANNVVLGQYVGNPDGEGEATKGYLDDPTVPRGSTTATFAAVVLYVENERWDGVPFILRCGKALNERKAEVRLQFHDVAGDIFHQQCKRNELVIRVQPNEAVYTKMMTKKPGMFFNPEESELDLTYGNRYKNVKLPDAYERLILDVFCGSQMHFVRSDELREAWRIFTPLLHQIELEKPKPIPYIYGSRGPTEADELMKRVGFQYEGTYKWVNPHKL
Chain of Eukaryotic translation initiation factor 4E (P63073 whole entry): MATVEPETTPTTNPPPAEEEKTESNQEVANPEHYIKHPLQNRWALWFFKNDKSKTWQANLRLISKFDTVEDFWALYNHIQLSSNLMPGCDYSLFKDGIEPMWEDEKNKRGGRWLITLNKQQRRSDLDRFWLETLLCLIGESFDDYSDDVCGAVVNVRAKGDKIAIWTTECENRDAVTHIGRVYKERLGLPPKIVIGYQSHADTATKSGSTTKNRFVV
Chain of DNA dC->dU-editing enzyme APOBEC-3A (P31941 whole entry): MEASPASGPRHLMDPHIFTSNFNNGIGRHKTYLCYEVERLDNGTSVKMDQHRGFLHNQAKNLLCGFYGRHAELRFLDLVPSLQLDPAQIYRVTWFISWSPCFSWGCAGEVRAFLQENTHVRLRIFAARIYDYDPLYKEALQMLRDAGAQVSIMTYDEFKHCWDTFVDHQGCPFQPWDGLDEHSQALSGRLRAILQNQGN
Chain of DNA dC->dU-editing enzyme APOBEC-3G (Q9HC16 whole entry): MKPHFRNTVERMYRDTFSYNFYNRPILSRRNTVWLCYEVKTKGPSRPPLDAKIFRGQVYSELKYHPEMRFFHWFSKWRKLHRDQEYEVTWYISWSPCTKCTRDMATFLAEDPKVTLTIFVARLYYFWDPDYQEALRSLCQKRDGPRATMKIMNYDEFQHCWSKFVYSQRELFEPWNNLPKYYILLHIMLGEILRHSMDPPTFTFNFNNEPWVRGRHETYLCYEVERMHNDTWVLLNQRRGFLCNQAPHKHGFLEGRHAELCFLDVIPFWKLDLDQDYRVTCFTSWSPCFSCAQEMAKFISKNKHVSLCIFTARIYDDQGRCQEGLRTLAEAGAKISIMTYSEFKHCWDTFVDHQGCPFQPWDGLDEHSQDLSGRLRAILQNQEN

S=C(N/N=C/c1ccc2ncccc2c1)Nc1cccnc1
AC50 (HEK293): 1.59 µM (active)

Cc1csc(SCC(=O)c2cc(C)n(Cc3cccs3)c2C)n1
EC50 [1]: 8.74 µM (active)
EC50 [2]: 8.09 µM (active)
EC50 [3]: 6.24 µM (active)
AC50 (HEK293): 2.29 µM (active)

Cc1cc(NC(=O)/C(C#N)=C\c2ccc(-c3ccc(SC(F)F)cc3)o2)n(-c2ccccc2)n1
EC50 [4]: > 99 µM (inactive)
EC50 [5]: 22.8 µM (inactive)

CCc1c(C#N)c(S)nc(C)c1C(=O)Nc1ccccc1
IC50 [6]: > 80 µM (inactive)

CC(C)c1ccc(-c2cc(C(=O)O)[nH]n2)cc1
IC50 [7]: > 100 µM (not active)
IC50 [8]: > 100 µM (inactive)

O=C1C2CC=C(Cl)CC2C(=O)N1c1nnc[nH]1 (stereo not given)
IC50 [7]: > 100 µM (not active)
IC50 [8]: > 100 µM (inactive)

CC(=O)CSc1nc2cc3c(cc2cc1C#N)OCCO3
EC50 [4]: > 99 µM (inactive)
EC50 [5]: 29.5 µM (inactive)

COc1ccc(OC)c(NS(=O)(=O)c2cnc3ccccc3c2)c1
IC50 [7]: > 10 µM (inconclusive)
IC50 [8]: > 10 µM (inactive)

COc1ccc(NS(=O)(=O)c2ccc(OC)c(OC)c2)cn1
IC50 [7]: > 100 µM (not active)
IC50 [8]: > 100 µM (inactive)

CSc1ccc(S(=O)(=O)NCC(=O)OCCOc2ccccc2)cc1[N+](=O)[O-]
EC50 [4]: 25.8 µM (inactive)
EC50 [5]: > 99 µM (inactive)

COC(=O)c1ccccc1/N=C/C1=C(O)c2c(C)nn(-c3ccccn3)c2CC1
IC50 [6]: > 80 µM (inactive)

COC(=O)c1nn2c(C(F)(F)F)cc(-c3ccc(Br)o3)nc2c1Br
EC50 [4]: > 99 µM (inactive)
EC50 [5]: 30.5 µM (inactive)

O=C(CSc1nc2cc(Cl)ccc2[nH]1)NC1CCCc2ccccc21 (stereo not given)
IC50 [6]: > 80 µM (inactive)

COc1cc(C(=O)Oc2ccccc2/C=N/NC(=O)c2ccc(C)c(Cl)c2)cc(OC)c1OC
CC50 [9]: 2.84 µM (active)
EC50 [10]: 1.17 µM (active)
EC50 [11]: > 60 µM (not active)
AC50 (HEK293): 12.9 µM (active)
AC50 (INS1): 0.829 µM (active)

Cc1ccc(-c2ccccc2NC(=O)C[S+]([O-])CC(=O)Nc2ccc(C)c(Cl)c2)o1 (stereo not given)
EC50 [4]: 34.1 µM (inactive)
EC50 [5]: 41.5 µM (inactive)

CC(C)(C)c1ccc(S(=O)(=O)Nc2cnc3ccccc3c2)cc1
IC50 [7]: > 100 µM (not active)
IC50 [8]: > 100 µM (inactive)

O=C1Nc2cc(C(=O)NCCCN3CCCC3)ccc2S/C1=C/c1cccc(Cl)c1
IC50 [6]: > 80 µM (inactive)
AC50 [12]: 7.29 µM (active)

C=CCn1c(=O)/c(=C\c2ccccn2)s/c1=C(/C#N)C(=O)NCC1CCCO1 (stereo not given)
EC50 [4]: > 99 µM (inactive)
EC50 [5]: > 99 µM (inactive)

COc1ccc(C(=O)OCC[N+]2(C)CCOCC2)cc1
IC50 [13]: 1.97 µM (active)
IC50 [14]: 50 µM (inactive)
IC50 [15]: 3.47 µM (active)

Cc1ccccc1C(=O)N1CCN(c2ccc(NC(=O)c3ccco3)cc2Cl)CC1
AC50 (HEK293): 2.45 µM (active)

Cc1cc(/C=C2\Cc3ccccc3C2=O)c(C)n1-c1ccccc1
EC50 [16]: < 0.16 µM (active)
AC50 (HEK293): 1.87 µM (active)

c1nc2nc[nH]c(SSc3[nH]cnc4ncnc3-4)c-2n1
IC50 [6]: 30.8 µM (inactive)
IC50 [17]: 75.2 µM (active)

Fc1cccc(Cl)c1CNc1ccc(N2CCCC2)cc1
EC50 [10]: 2.52 µM (active)
EC50 [11]: > 60 µM (not active)
IC50 [18]: 30.5 µM (active)
IC50 [6]: > 80 µM (inactive)
IC50 [14]: 50 µM (inactive)
IC50 (Genome polyprotein): 35.6 µM (active)

Cc1nnc(N/N=C\c2ccc(-c3cccc(C(=O)O)c3)o2)n1N
IC50 [6]: 66.8 µM (inactive)

COc1c(S(=O)(=O)Nc2cccnc2)ccc(Cl)c1Cl
IC50 [8]: > 100 µM (inactive)

Cn1ccnc1Sc1nc(Nc2ccccc2)nc(Nc2ccccc2)n1
IC50 [7]: > 100 µM (not active)
IC50 [8]: > 100 µM (inactive)

O=C1c2ccccc2C(=O)C1c1nc2ccccc2[nH]1
IC50 [7]: > 100 µM (not active)
IC50 [8]: > 100 µM (inactive)

COC(=O)CCNc1ccc2c(c1)OCCO2
EC50 [16]: 1.73 µM (active)
AC50 (HEK293): 1.9 µM (active)
IC50 [17]: 251 µM (active)
